Data reported in paper PMC5563514, “Viral polymerase inhibitors T-705 and T-1105 are potential inhibitors of Zika virus replication” (Archives of Virology, 2017).
Like-named read-outs stand apart in the source and are kept apart here.

Assays:
[1] = Cytotoxicity against Vero cells (CPE monitoring, neutral red uptake); type: cell-based; conditions: African green monkey; for CC50 at 72 h: Vero cells, neutral red uptake, three independent experiments
Procedure: The cytotoxicity of the compounds against Vero cells was determined by monitoring the CPE. Vero cells (2.5 × 10^4/well) were plated in the wells of a 96-well plate. After 24 h, the cell monolayer was incubated with different concentrations of the test compounds for 72 h at 37 °C under a 5% CO2 atmosphere in a CO2 incubator and then monitored for CPE. The appropriate negative and positive controls were used. A neutral red uptake assay was used to assess cell viability. The half-maximal (50%) cytotoxic concentration (CC50) of each compound was determined from the dose-response curve.

ZIKV strain SZ01 = assay: CPE inhibition assay, anti-ZIKV activity in Vero cells; type: cell-based, Zika virus; conditions: for cell death rate compared with mock-treated ZIKV-infected cells: P < 0.05, two-tailed Student's t-test; for EC50: Zika virus, ZIKV strain SZ01, 68.6 TCID50, Vero cells, neutral red uptake, three independent experiments
YFV [2] = conditions: at low concentrations; cited from earlier work
YFV [3] = conditions: cited from earlier work

Row | SMILES | CC50 at 72 h [1] | other results
1 | CC(C)Oc1cnc(O)c(C(N)=O)n1 [Compound 15, 6-isopropoxypyrazine-3-hydroxy-2-carboxamide] | 345 ± 48.4 µM | –
2 | NC(=O)c1nccn(CC(O)CO)c1=O (stereo not shown) [Compound 5, 4-(2,3-dihydroxypropyl)-3-oxo-3,4-dihydropyrazine-2-carboxamide] | > 2000 µM | –
3 | COc1cnc(O)c(C(N)=O)n1 [Compound 12, 3-hydroxy-6-methoxypyrazine-2-carboxamide] | > 1000 µM | –
4 | CCCCCCCCCCCCCCCCOCCCOP(=O)(O)CO[C@H](CO)Cn1ccc(N)nc1=O [CMX001, brincidofovir] | – | CC50 [1]: 11.3 ± 0.2 µM; anti-ZIKV activity (ZIKV strain SZ01): not active; effect on ZIKV-induced CPE or cell death (ZIKV strain SZ01): little or no effect
5 | NC(=O)c1nccn(C2OC(CO)C(O)C2O)c1=O (stereo not shown) [Compound 6, 4-(3,4-dihydroxy-5-(hydroxymethyl)tetrahydrofuran-2-yl)-3-oxo-3,4-dihydropyrazine-2-carboxamide] | > 1000 µM | activity in cell culture (YFV [2]): only slight activity; efficacy in a hamster model of YFV infection (YFV [3]): effective
6 | CCn1ccnc(C(N)=O)c1=O [Compound 1, 4-ethyl-3-oxo-3,4-dihydropyrazine-2-carboxamide] | > 1000 µM | –
7 | NC(=O)c1nc(OCCO)cnc1O [Compound 19, 3-hydroxy-6-(2-hydroxyethoxy) pyrazine-2-carboxamide] | > 1000 µM | –
8 | NC(=O)c1nccn(COCCO)c1=O [Compound 3, 4-((2-hydroxyethoxy)methyl)-3-oxo-3,4-dihydropyrazine-2-carboxamide] | > 1000 µM | –
9 | CCOc1cnc(O)c(C(N)=O)n1 [Compound 13, 6-ethoxy-3-hydroxypyrazine-2-carboxamide] | > 500 µM | –
10 | NC(=O)c1nccn(CC(O)COC(c2ccccc2)(c2ccccc2)c2ccccc2)c1=O (stereo not shown) [Compound 4, 4-(2-hydroxy-3-(trityloxy)propyl)-3-oxo-3,4-dihydropyrazine-2-carboxamide] | > 500 µM | –
11 | CCCCOc1cnc(O)c(C(N)=O)n1 [Compound 16, 6-butoxy-3-hydroxypyrazine-2-carboxamide] | 310 ± 15.2 µM | –
12 | NC(=O)c1ncn([C@@H]2O[C@H](CO)[C@@H](O)[C@H]2O)n1 [Ribavirin] | > 2000 µM | effect on ZIKV-induced CPE or cell death (ZIKV strain SZ01; Vero cells, ZIKV strain SZ01): little or no effect; anti-ZIKV activity (ZIKV strain SZ01; at concentrations below 400 μM): not active
13 | CC(=O)OCCOCn1cc(F)nc(C(N)=O)c1=O [Compound 7, 2-((3-carbamoyl-5-fluoro-2-oxopyrazin-1(2H)-yl)methoxy) ethyl acetate] | > 1000 µM | –
14 | NC(=O)c1nc(F)cn(C2OC(CO)C(O)C2O)c1=O (stereo not shown) [Compound 9, 4-(3,4-dihydroxy-5-(hydroxymethyl)tetrahydrofuran-2-yl)-6-fluoro-3-oxo-3,4-dihydropyrazine-2-carboxamide] | > 1000 µM | –
15 | COCCOc1cnc(O)c(C(N)=O)n1 [Compound 20, 3-hydroxy-6-(2-methoxyethoxy) pyrazine-2-carboxamide] | > 1000 µM | –
16 | NC(=O)c1nc(F)cn(CC(O)COC(c2ccccc2)(c2ccccc2)c2ccccc2)c1=O (stereo not shown) [Compound 8, 6-fluoro-4-(2-hydroxy-3-(trityloxy)propyl)-3-oxo-3,4-dihydropyrazine-2-carboxamide] | > 500 µM | –
17 | CCCOc1cnc(O)c(C(N)=O)n1 [Compound 14, 3-hydroxy-6-propoxypyrazine-2-carboxamide] | > 500 µM | –
18 | CCCCCOc1cnc(O)c(C(N)=O)n1 [Compound 17, 3-hydroxy-6-(pentyloxy)pyrazine-2-carboxamide] | 260 ± 51.1 µM | –
19 | NC(=O)c1nc([N+](=O)[O-])cnc1O [Compound 10, 6-nitropyrazine-3-hydroxy-2-carboxamide] | > 4000 µM | –
20 | CC(=O)OCCOCn1ccnc(C(N)=O)c1=O [Compound 2, 2-((3-carbamoyl-2-oxopyrazin-1(2H)-yl)methoxy) ethyl acetate] | > 2000 µM | –
21 | NC(=O)c1nc(F)c[nH]c1=O [Compound T-705, favipiravir] | > 3000 µM | cell death rate compared with mock-treated ZIKV-infected cells (ZIKV strain SZ01): significantly reduced; EC50 (ZIKV strain SZ01): 111 ± 13.1 µM
22 | NC(=O)c1nc(Br)cnc1O [Compound 11, 6-bromo-3-hydroxypyrazine-2-carboxamide] | > 2000 µM | –
23 | NC(=O)c1nccnc1O [Compound T-1105, 3-hydroxypyrazine-2-carboxamide] | > 4000 µM | cell death rate compared with mock-treated ZIKV-infected cells (ZIKV strain SZ01): significantly reduced; EC50 (ZIKV strain SZ01): 97.5 ± 6.8 µM
24 | CCCCCCCCOc1cnc(O)c(C(N)=O)n1 [Compound 18, 3-hydroxy-6-(octyloxy)pyrazine-2-carboxamide] | 245 ± 17.8 µM | –
